According to ChEMBL document CHEMBL1151757, “Synthesis, radiosynthesis, and biological evaluation of fluorine-18-labeled 2beta-carbo(fluoroalkoxy)-3beta-(3'-((Z)-2-haloethenyl)phenyl)nortropanes: candidate radioligands for in vivo imaging of the serotonin transporter with positron emission tomography” (J Med Chem, 2008):

Assays:
[1] = Ratio of drug uptake in pons to cerebellum in awake rhesus monkey after 0.8 mins postinjection; type: ADME, organism-based, Macaca mulatta; conditions: in vivo, 48 s
[2] = Drug uptake in awake rhesus monkey occipital lobe after 85 mins postinjection; type: ADME, organism-based, Macaca mulatta; conditions: in vivo
[3] = Drug uptake in awake rhesus monkey caudate after 0.8 mins postinjection; type: ADME, organism-based, Macaca mulatta, Caudate nucleus; conditions: in vivo, 48 s
[4] = Drug uptake in awake rhesus monkey brain pons after 13.5 mins postinjection; type: ADME, organism-based, Macaca mulatta; conditions: in vivo, 0.225 h
[5] = Drug uptake in awake rhesus monkey brain cerebellum after 0.75 mins postinjection; type: ADME, organism-based, Macaca mulatta; conditions: in vivo, 45 s

SMILES	Ratio [1]	Drug uptake [2]	Drug uptake [3]	Drug uptake [4]	Drug uptake [5]
O=C(OCC[18F])C1C2CCC(CC1c1ccc(/C=C\I)cc1)N2 (stereo not given)	4.8	2.74	0		
O=C(OCC[18F])C1C2CCC(CC1c1cccc(/C=C\I)c1)N2 (stereo not given)				0.08	0
